In ChEMBL document CHEMBL4339189, “Dissymmetric pyridyl-substituted 3,5-bis(arylidene)-4-piperidones as anti-hepatoma agents by inhibiting NF-κB pathway activation” (Eur J Med Chem, 2019):
Active and inactive are the calls of the source. No cut-off for these calls is given here.

How the values were obtained:
[1] = test system: L02; test: Cytotoxicity against human LO2 cells assessed as reduction in cell viability incubated for 24 hrs by MTT assay; format: cell-based; conditions: L02, 24 h
[2] = test system: RAW264.7; test: Antiinflammatory activity in mouse RAW264.7 cells assessed as inhibition of LPS-stimulated IL-6 production 6.0 uM preincubated for 2 hrs followed by LPS stimulaton measured after 22 hrs by ELISA relative to control; format: functional
[3] = test system: QGY-7703; test: Cytotoxicity against human QGY7703 cells assessed as reduction in cell viability incubated for 24 hrs by MTT assay; format: functional, cell-based; conditions: QGY-7703, 24 h
[4] = Cytotoxicity against human HHL5 cells assessed as reduction in cell viability incubated for 24 hrs by MTT assay; format: cell-based; conditions: HHL-5, 24 h
[5] = test system: HepG2; test: Cytotoxicity against human HepG2 cells assessed as reduction in cell viability incubated for 24 hrs by MTT assay; format: functional, cell-based; conditions: HepG2, 24 h
[6] = test system: RAW264.7; test: Antiinflammatory activity in mouse RAW264.7 cells assessed as inhibition of LPS-stimulated TNF-alpha production at 6.0 uM preincubated for 2 hrs followed by LPS stimulaton measured after 22 hrs by ELISA relative to control; format: functional
[7] = test system: SMMC-7721; test: Cytotoxicity against human SMMC7721 cells assessed as reduction in cell viability incubated for 24 hrs by MTT assay; format: functional, cell-based; conditions: SMMC-7721, 24 h
[8] = test system: RAW264.7; test: Cytotoxicity against mouse RAW264.7 cells assessed as reduction in cell viability at 6.0 uM incubated for 24 hrs by MTT assay; format: cell-based; conditions: raw264.7, 24 h

| SMILES | IC50 [1] | inhibition [2] | IC50 [3] | IC50 [4] | IC50 [5] | inhibition [6] | IC50 [7] | Activity [8] | inhibition (INH) [2] | inhibition at 6 µM [6] |
| --- | --- | --- | --- | --- | --- | --- | --- | --- | --- | --- |
| O=C1/C(=C/c2cccnc2)CNC/C1=C\c1ccccc1F | 15.9 µM | inactive | 8.89 µM | 14.6 µM | 21 µM | inactive | > 20 µM | Non-Toxic |  |  |
| CN1C/C(=C\c2ccncc2)C(=O)/C(=C/c2ccc(F)cc2Br)C1 | 12.4 µM | Active | 6.9 µM | 11.6 µM | 9.2 µM | Active | 23.8 µM | Non-Toxic |  |  |
| O=C1/C(=C/c2cccnc2)CN(S(=O)(=O)c2ccccc2)C/C1=C\c1ccccc1C(F)(F)F | 12.5 µM | Active | 6.24 µM | 14.3 µM | 5.37 µM | Active | 10.9 µM | Non-Toxic |  |  |
| COc1cc(/C=C2\CN(C)C/C(=C\c3cccnc3)C2=O)cc(OC)c1 | 18.4 µM | Active | 7.9 µM | > 20 µM | 6.91 µM | Active | 17.9 µM | Non-Toxic |  |  |
| N#Cc1ccc(S(=O)(=O)N2C/C(=C\c3cccnc3)C(=O)/C(=C/c3ccccc3F)C2)cc1 | > 20 µM | inactive | 15.8 µM | 15.5 µM | 6.6 µM | inactive | 15.4 µM | Non-Toxic |  |  |
| S=C(S)N1CCCC1 |  | Active |  |  |  | Active |  |  |  |  |
| COc1cc(/C=C2\CN(C)C/C(=C\c3ccncc3)C2=O)cc(OC)c1 | 13.4 µM | Active | 8.4 µM | 11.1 µM | 9.5 µM | Active | 5.81 µM | Non-Toxic |  |  |
| Cc1ccc(S(=O)(=O)N2C/C(=C\c3cccnc3)C(=O)/C(=C/c3ccccc3F)C2)cc1 | 14.9 µM | Active | 9.7 µM | 15.3 µM | 4.2 µM | Active | 10.3 µM | Non-Toxic |  |  |
| CC(=O)Nc1ccc(S(=O)(=O)N2C/C(=C\c3ccncc3)C(=O)/C(=C/c3ccccc3F)C2)cc1 | 12.3 µM | inactive | 13.7 µM | 14.2 µM | 11.7 µM | inactive | 13.4 µM | Non-Toxic |  |  |
| CN1C/C(=C\c2cccnc2)C(=O)/C(=C/c2ccc(F)cc2Br)C1 | 14.4 µM | Active | 2.61 µM | 11.3 µM | 13 µM | Active | 20.8 µM | Non-Toxic |  |  |
| CN1C/C(=C\c2cccnc2)C(=O)/C(=C/c2cc([N+](=O)[O-])ccc2F)C1 | 15.7 µM | Active | 11.1 µM | 14.2 µM | 6.63 µM | Active | 6.17 µM | Non-Toxic |  |  |
| COc1ccc(/C=C2\CN(C)C/C(=C\c3cccnc3)C2=O)c(OC)c1OC | 13.6 µM | Active | 2.63 µM | 11.6 µM | 5.16 µM | Active | 13.7 µM | Non-Toxic |  |  |
| CN1C/C(=C\c2ccncc2)C(=O)/C(=C/c2ccccc2C(F)(F)F)C1 | 15.8 µM |  | 4.5 µM | 10.4 µM | 3.3 µM |  | 4.1 µM | Non-Toxic | <30% | < 30% |
| COc1cc(/C=C/C(=O)CC(=O)/C=C/c2ccc(O)c(OC)c2)ccc1O [CURCUMIN] | 22.7 µM |  | 23.9 µM | 24.2 µM | 17.4 µM |  | 16.7 µM |  |  |  |
| COc1cc(/C=C2\CN(C)C/C(=C\c3ccncc3)C2=O)cc(OC)c1OC | 16.4 µM | Active | 5.9 µM | 12.3 µM | 9.8 µM | Active | 9.13 µM | Non-Toxic |  |  |
| O=C1/C(=C/c2ccncc2)CN(S(=O)(=O)c2ccc(F)cc2)C/C1=C\c1ccccc1C(F)(F)F | 12.9 µM |  | 7.7 µM | 12 µM | 4.01 µM |  | 9.27 µM | Non-Toxic |  |  |
| N#Cc1ccc(S(=O)(=O)N2C/C(=C\c3ccncc3)C(=O)/C(=C/c3ccccc3F)C2)cc1 | > 20 µM | Active | 8.5 µM | 15.7 µM | 4.5 µM | Active | 16.2 µM | Non-Toxic |  |  |

| SMILES | IC50 [1] | inhibition [2] | IC50 [3] | IC50 [4] | IC50 [5] | inhibition [6] | IC50 [7] | Activity [8] | inhibition (INH) [2] | inhibition at 6 µM [6] |
| --- | --- | --- | --- | --- | --- | --- | --- | --- | --- | --- |
| O=C1/C(=C/c2ccncc2)CN(S(=O)(=O)c2ccccc2)C/C1=C\c1ccccc1F | 15.9 µM | inactive | 8.4 µM | > 20 µM | 5.8 µM | inactive | 17.5 µM | Non-Toxic |  |  |
| N#Cc1ccc(S(=O)(=O)N2C/C(=C\c3ccncc3)C(=O)/C(=C/c3ccccc3C(F)(F)F)C2)cc1 | 17.6 µM |  | 6.29 µM | 19.7 µM | 5.92 µM |  | 9.61 µM | Non-Toxic |  |  |
| Cc1ccc(S(=O)(=O)N2C/C(=C\c3ccncc3)C(=O)/C(=C/c3ccccc3F)C2)cc1 | > 20 µM | inactive | > 20 µM | 13.3 µM | 9.7 µM | inactive | 13.2 µM | Non-Toxic |  |  |
| O=C1/C(=C/c2cccnc2)CN(S(=O)(=O)c2ccc([N+](=O)[O-])cc2)C/C1=C\c1ccccc1F | > 20 µM | inactive | 5.6 µM | > 20 µM | 12.8 µM | inactive | > 20 µM | Non-Toxic |  |  |
| O=C1/C(=C/c2ccncc2)CN(S(=O)(=O)c2ccc(Cl)cc2)C/C1=C\c1ccccc1C(F)(F)F | 14.9 µM |  | 12.7 µM | 11 µM | 7.19 µM |  | 5.51 µM | Non-Toxic |  |  |
| O=C1/C(=C/c2cccnc2)CN(S(=O)(=O)c2ccc(F)cc2)C/C1=C\c1ccccc1F | 15.6 µM | inactive | 15.3 µM | 12.6 µM | 15.6 µM | inactive | 9.9 µM | Non-Toxic |  |  |
| O=C1/C(=C/c2ccncc2)CN(S(=O)(=O)c2ccc(Br)cc2)C/C1=C\c1ccccc1C(F)(F)F | 12.6 µM |  | 7.06 µM | 9.32 µM | 14.5 µM |  | 10.5 µM | Non-Toxic |  |  |
| Cc1ccc(S(=O)(=O)N2C/C(=C\c3cccnc3)C(=O)/C(=C/c3ccccc3C(F)(F)F)C2)cc1 | 12.3 µM | Active | 6.17 µM | 11.1 µM | 2.93 µM | Active | 6.7 µM | Non-Toxic |  |  |
| COc1ccc(/C=C2\CN(C)C/C(=C\c3ccncc3)C2=O)c(OC)c1OC | 15.6 µM | Active | 8.35 µM | 11.9 µM | 3.56 µM | Active | 9.08 µM | Non-Toxic |  |  |
| CC(=O)Nc1ccc(S(=O)(=O)N2C/C(=C\c3cccnc3)C(=O)/C(=C/c3ccccc3F)C2)cc1 | 15.6 µM | Active | 9.64 µM | 14.2 µM | 4.56 µM | Active | 10.9 µM | Non-Toxic |  |  |
| CC(=O)Nc1ccc(S(=O)(=O)N2C/C(=C\c3ccncc3)C(=O)/C(=C/c3ccccc3C(F)(F)F)C2)cc1 | 10.1 µM |  | 5.56 µM | 8.87 µM | 4.84 µM |  | 5.76 µM | Non-Toxic |  |  |
| O=C1/C(=C/c2ccncc2)CN(S(=O)(=O)c2ccc([N+](=O)[O-])cc2)C/C1=C\c1ccccc1C(F)(F)F | 18.6 µM |  | 9.73 µM | > 20 µM | 13.4 µM |  | > 20 µM | Non-Toxic |  |  |
| O=C1/C(=C/c2ccncc2)CN(S(=O)(=O)c2ccc(C(F)(F)F)cc2)C/C1=C\c1ccccc1C(F)(F)F | 13.8 µM |  | 4.68 µM | 11.7 µM | 3.24 µM |  | 3.84 µM | Non-Toxic |  |  |
| Cc1ccc(S(=O)(=O)N2C/C(=C\c3ccncc3)C(=O)/C(=C/c3ccccc3C(F)(F)F)C2)cc1 | 12.8 µM |  | 5.09 µM | 15.9 µM | 4.64 µM |  | 5.59 µM | Non-Toxic |  |  |
| O=C1/C(=C/c2ccncc2)CN(S(=O)(=O)c2ccccc2)C/C1=C\c1ccccc1C(F)(F)F | 12.3 µM |  | 6.21 µM | 12.1 µM | 7.02 µM |  | 6.54 µM | Non-Toxic |  |  |
| O=C1/C(=C/c2ccccc2F)CNC/C1=C\c1ccccc1F | 10.2 µM |  | 4.97 µM | 14.5 µM | 3.33 µM |  | 8.8 µM |  |  |  |
